Assays:
Assay type in all cases: in vivo
[1] = system: ryegrass, Italian (Italian ryegrass, Lolium multiflorum); assay: Test A preemergence; settings: for Plant response rating, Ryegrass, Italian: 125 g ai/ha; for Ryegrass, Italian plant response rating (0 to 100 scale, 0 is no effect, 100 is complete control): 500 g ai/ha, visual injury approx. 10 d
Text: (§1) Seeds of plant species selected from barnyardgrass (Echinochloa crus-galli), Kochia (Kochia scoparia), ragweed (common ragweed, Ambrosia elatior), ryegrass, Italian (Italian ryegrass, Lolium multiflorum), crabgrass, large (Digitaria sanguinalis), giant foxtail (Setaria faberii), green foxtail (Setaria viridis), morningglory (Ipomoea spp.), pigweed (Amaranthus retroflexus), velvetleaf (Abutilon theophrasti), wheat (Triticum aestivum), and corn (Zea mays) were planted into a blend of loam soil and sand and treated preemergence with a directed soil spray using test chemicals formulated in anon-phytotoxic solvent mixture which included a surfactant.
(§2) At the same time, plants selected from these crop and weed species and also blackgrass (Alopecurus myosuroides), and Galium (catchweed bedstraw, Galium aparine) were planted in pots containing the same blend of loam soil and sand and treated with postemergence applications of test chemicals formulated in the same manner. Plants ranged in height from 2 to 10 cm and were in the one- to two-leaf stage for the postemergence treatment. Treated plants and untreated controls were maintained in a greenhouse for approximately 10 d, after which time all treated plants were compared to untreated controls and visually evaluated for injury. Plant response ratings, summarized in Table A, are based on a 0 to 100 scale where 0 is no effect and 100 is complete control. A dash (-) response means no test result.

Kochia (Kochia scoparia) [2] = assay: Test A preemergence; settings: for Plant response rating, Kochia: 125 g ai/ha, preemergence, 0 to 100 scale (0 no effect, 100 complete control); for Kochia plant response rating (0 to 100 scale, 0 is no effect, 100 is complete control): Preemergence, 500 g ai/ha, visual injury approx. 10 d
Text: as §1, §2

[3] = system: barnyardgrass (Echinochloa crus-galli); assay: Test A preemergence; settings: for Plant response rating, Barnyardgrass: 125 g ai/ha, preemergence, 0 to 100 scale (0 no effect, 100 complete control); for Barnyardgrass plant response rating (0 to 100 scale, 0 is no effect, 100 is complete control): Preemergence, 500 g ai/ha, visual injury approx. 10 d
Text: as §1, §2

[4] = system: giant foxtail (Setaria faberii); assay: Test A preemergence; settings: for Plant response rating, Foxtail, Giant: 125 g ai/ha, preemergence, 0 to 100 scale (0 no effect, 100 complete control); for Foxtail, Giant plant response rating (0 to 100 scale, 0 is no effect, 100 is complete control): Preemergence, 500 g ai/ha, visual injury approx. 10 d
Text: as §1, §2

[5] = system: pigweed (Amaranthus retroflexus); assay: Test A preemergence; settings: for Plant response rating, Pigweed: 125 g ai/ha; for Pigweed plant response rating (0 to 100 scale, 0 is no effect, 100 is complete control): 500 g ai/ha, visual injury approx. 10 d
Text: as §1, §2

[6] = system: ragweed (common ragweed, Ambrosia elatior); assay: Test A preemergence; settings: for Plant response rating, Ragweed: 125 g ai/ha; for Ragweed plant response rating (0 to 100 scale, 0 is no effect, 100 is complete control): 500 g ai/ha, visual injury approx. 10 d
Text: as §1, §2

[7] = system: ducksalad (Heteranthera limosa); assay: Test B flooded paddy test; settings: Flood, 0 to 100 scale where 0 is no effect and 100 is complete control, 13 to 15 d
Procedure, shortened: (§3)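 Visual ratings (0 none to 100 complete control) are relative to untreated plants, taken 13–15 d after treatment in a greenhouse. Test material went straight into floodwater standing 3 cm above the soil, kept constant, on plants at the 2-leaf stage.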

rice (Oryra sativa) = assay: Test B flooded paddy test; settings: Flood, 0 to 100 scale where 0 is no effect and 100 is complete control, 13 to 15 d
Procedure, shortened: as §3

[8] = system: sedge, umbrella (small-flower umbrella sedge, Cyperus difformis); assay: Test B flooded paddy test; settings: Flood, 0 to 100 scale where 0 is no effect and 100 is complete control, 13 to 15 d
Procedure, shortened: as §3

[9] = system: barnyardgrass (Echinochloa crus-galli); assay: Test B flooded paddy test; settings: Flood, 0 to 100 scale where 0 is no effect and 100 is complete control, 13 to 15 d
Procedure, shortened: as §3

[10] = system: Galium (catchweed bedstraw, Galium aparine); assay: Test A postemergence; settings: for Galium plant response rating: 125 g ai/ha, visual injury rating on 0 to 100 scale (0 no effect, 100 complete control), approx. 10 d; for Plant response rating, Galium: 500 g ai/ha
Text: as §1, §2

[11] = system: ryegrass, Italian (Italian ryegrass, Lolium multiflorum); assay: Test A postemergence; settings: for Ryegrass, Italian plant response rating: 125 g ai/ha, visual injury rating on 0 to 100 scale (0 no effect, 100 complete control), approx. 10 d; for Plant response rating, Ryegrass, Italian: 500 g ai/ha
Text: as §1, §2

corn (Zea mays) = assay: Test A postemergence; settings: postemergence; for Corn plant response rating: 125 g ai/ha, visual injury rating on 0 to 100 scale (0 no effect, 100 complete control), approx. 10 d; for Plant response rating, Corn: 500 g ai/ha, 0 to 100 scale, 0 no effect, 100 complete control
Text: as §1, §2

[12] = system: wheat (Triticum aestivum); assay: Test A postemergence; settings: for Wheat plant response rating: 125 g ai/ha, visual injury rating on 0 to 100 scale (0 no effect, 100 complete control), approx. 10 d; for Plant response rating, Wheat: 500 g ai/ha
Text: as §1, §2

Kochia (Kochia scoparia) [13] = assay: Test A postemergence; settings: for Kochia plant response rating: 125 g ai/ha, visual injury rating on 0 to 100 scale (0 no effect, 100 complete control), approx. 10 d; for Plant response rating, Kochia: 500 g ai/ha
Text: as §1, §2

[14] = system: barnyardgrass (Echinochloa crus-galli); assay: Test A postemergence; settings: postemergence; for Barnyardgrass plant response rating: 125 g ai/ha, visual injury rating on 0 to 100 scale (0 no effect, 100 complete control), approx. 10 d; for Plant response rating, Barnyardgrass: 500 g ai/ha, 0 to 100 scale, 0 no effect, 100 complete control
Text: as §1, §2

[15] = system: giant foxtail (Setaria faberii); assay: Test A postemergence; settings: for Foxtail, Giant plant response rating: 125 g ai/ha, visual injury rating on 0 to 100 scale (0 no effect, 100 complete control), approx. 10 d; for Plant response rating, Foxtail, Giant: 500 g ai/ha
Text: as §1, §2

[16] = system: blackgrass (Alopecurus myosuroides); assay: Test A postemergence; settings: postemergence; for Blackgrass plant response rating: 125 g ai/ha, visual injury rating on 0 to 100 scale (0 no effect, 100 complete control), approx. 10 d; for Plant response rating, Blackgrass: 500 g ai/ha, 0 to 100 scale, 0 no effect, 100 complete control
Text: as §1, §2

[17] = system: pigweed (Amaranthus retroflexus); assay: Test A postemergence; settings: for Pigweed plant response rating: 125 g ai/ha, visual injury rating on 0 to 100 scale (0 no effect, 100 complete control), approx. 10 d; for Plant response rating, Pigweed: 500 g ai/ha
Text: as §1, §2

[18] = system: ragweed (common ragweed, Ambrosia elatior); assay: Test A postemergence; settings: for Ragweed plant response rating: 125 g ai/ha, visual injury rating on 0 to 100 scale (0 no effect, 100 complete control), approx. 10 d; for Plant response rating, Ragweed: 500 g ai/ha
Text: as §1, §2

[19] = preemergence, 0 to 100 scale (0 no effect, 100 complete control)
[20] = postemergence, 0 to 100 scale, 0 no effect, 100 complete control
[21] = Preemergence, visual injury after approximately 10 d, 0 to 100 scale where 0 is no effect and 100 is complete control
[22] = Postemergence, 0 to 100 scale where 0 is no effect and 100 is complete control

| Compound | Ryegrass, Italian plant response rating (0 to 100 scale, 0 is no effect, 100 is complete control) ([1]; Preemergence) | Plant response rating, Kochia (Kochia (Kochia scoparia) [2]) | Kochia plant response rating (0 to 100 scale, 0 is no effect, 100 is complete control) (Kochia (Kochia scoparia) [2]) | Plant response rating, Barnyardgrass [3] | Barnyardgrass plant response rating (0 to 100 scale, 0 is no effect, 100 is complete control) [3] | Plant response rating, Foxtail, Giant [4] | Foxtail, Giant plant response rating (0 to 100 scale, 0 is no effect, 100 is complete control) [4] | Pigweed plant response rating (0 to 100 scale, 0 is no effect, 100 is complete control) ([5]; Preemergence) | Ragweed plant response rating (0 to 100 scale, 0 is no effect, 100 is complete control) ([6]; Preemergence) | Galium plant response rating ([10]; postemergence) | Ryegrass, Italian plant response rating ([11]; postemergence) | Corn plant response rating (corn (Zea mays)) | Plant response rating, Corn (corn (Zea mays)) | Wheat plant response rating ([12]; postemergence) | Kochia plant response rating (Kochia (Kochia scoparia) [13]; postemergence) | Barnyardgrass plant response rating [14] | Plant response rating, Barnyardgrass [14] | Foxtail, Giant plant response rating ([15]; postemergence) | Blackgrass plant response rating [16] | Plant response rating, Blackgrass [16] | further results |
| --- | --- | --- | --- | --- | --- | --- | --- | --- | --- | --- | --- | --- | --- | --- | --- | --- | --- | --- | --- | --- | --- |
| Cc1cccc(NC(=O)C2C(=O)NCC2c2ccc(F)c(F)c2)c1F (stereo not drawn) [Compound 409] | 0 | 0 | 0 | 70 | 80 | 80 | 90 | 10 | 0 | 0 | 0 | 0 | 0 | 0 | 0 | 60 | 70 | 60 | 10 | 20 | Plant response rating, Ryegrass, Italian [1, 19]: 0; Plant response rating, Pigweed [5, 19]: 0; Plant response rating, Ragweed [6, 19]: 0; Plant response rating, Ducksalad ([7]; 500 g ai/ha): 40; Plant response rating, Rice (rice (Oryra sativa); 500 g ai/ha): 30; Plant response rating, Sedge, Umbrella ([8]; 500 g ai/ha): 0; Plant response rating, Barnyardgrass ([9]; 500 g ai/ha): 40; Plant response rating, Galium [10, 20]: 0; Plant response rating, Ryegrass, Italian [11, 20]: 0; Plant response rating, Wheat [12, 20]: 0; Plant response rating, Kochia (Kochia (Kochia scoparia) [13]; [20]): 30; Plant response rating, Foxtail, Giant [15, 20]: 80; Pigweed plant response rating ([17]; postemergence): 0; Plant response rating, Pigweed [17, 20]: 20; Ragweed plant response rating ([18]; postemergence): 0; Plant response rating, Ragweed [18, 20]: 0 |
| C=C(C)CN1CC(c2cccc(C(F)(F)F)c2)C(C(=O)Nc2cccc(F)c2F)C1=O (stereo not drawn) [Compound 479] | 0 | 0 | 0 | 0 | 30 | 80 | 90 | 0 | 0 | 0 | 0 | 0 | 0 | 0 | 0 | 0 | 50 | 0 | 0 | 40 | Plant response rating, Ryegrass, Italian [1, 21]: 0; Plant response rating, Pigweed [5, 21]: 0; Plant response rating, Ragweed [6, 21]: 0; Plant response rating, Ducksalad ([7]; 250 g ai/ha): 20; Plant response rating, Rice (rice (Oryra sativa); 250 g ai/ha): 0; Plant response rating, Sedge, Umbrella ([8]; 250 g ai/ha): 0; Plant response rating, Barnyardgrass ([9]; 250 g ai/ha): 0; Plant response rating, Galium [10, 22]: 0; Plant response rating, Ryegrass, Italian [11, 22]: 0; Plant response rating, Wheat [12, 22]: 40; Plant response rating, Kochia (Kochia (Kochia scoparia) [13]; [22]): 0; Plant response rating, Foxtail, Giant [15, 22]: 60; Pigweed plant response rating ([17]; postemergence): 0; Plant response rating, Pigweed [17, 22]: 0; Ragweed plant response rating ([18]; postemergence): 0; Plant response rating, Ragweed [18, 22]: 0 |

Reference: patent US12077503B2, “Substituted cyclic amides and their use as herbicides” (FMC CORPORATION, priority 2015, dated 2024)
